Assay results as given in ChEMBL document CHEMBL1130985, “A novel super-potent neurokinin A receptor antagonist containing dehydroalanine” (Bioorg Med Chem Lett, 1998).
Numbered stars: 1 amine (or outer) side, 2 acyl side, 3 side chain; on linkers, the order of the positions; unused ones are H or OH. Bridge positions count the residues as written; N and C are the ends. Square brackets hold non-standard residues; d marks the D form. Peptide text beside a SMILES is read from it. X1 = O=C([C@@H](CN[*:1])CSCC1O[C@@H](O)C(O)[C@H](O)[C@H]1O)[*:2]; Dap = NC[C@H](N)C(=O)O; Dha = C=C(N)C(=O)O

Experiments:
[1] = target: T1, Substance-K receptor (Rattus norvegicus, UniProt P16610); test: pA2 value against Tachykinin receptor 2 in rat vas deferens; format: tissue-based; conditions: for Kb: read-out: pA2 (converted)
T1 sequence (P16610 whole entry): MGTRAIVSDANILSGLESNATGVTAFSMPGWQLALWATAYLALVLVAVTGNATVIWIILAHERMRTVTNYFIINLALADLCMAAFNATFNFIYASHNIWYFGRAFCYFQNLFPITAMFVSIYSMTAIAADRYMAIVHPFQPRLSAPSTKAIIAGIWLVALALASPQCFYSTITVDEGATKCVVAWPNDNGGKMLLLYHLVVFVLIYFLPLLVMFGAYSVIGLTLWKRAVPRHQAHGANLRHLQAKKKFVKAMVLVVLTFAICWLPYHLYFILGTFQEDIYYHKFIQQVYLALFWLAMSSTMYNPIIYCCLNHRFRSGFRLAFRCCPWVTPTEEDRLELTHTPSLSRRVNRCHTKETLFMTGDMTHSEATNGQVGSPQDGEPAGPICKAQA

[2] = target: T2, Substance-K receptor (Rattus norvegicus) (UniProt P16610); test: Antagonistic activity against Tachykinin receptor 2 in rat vas deferens at 10 nM concentration; format: functional
T2 sequence (whole entry): T1 sequence (P16610 whole entry)

[3] = target: T2, Substance-K receptor (Rattus norvegicus); test: Antagonistic activity against Tachykinin receptor 2 in rat vas deferens at 30 nM concentration; format: functional
[4] = target: T2, Substance-K receptor (Rattus norvegicus); test: Antagonistic activity against Tachykinin receptor 2 in rat vas deferens at 100 nM concentration; format: functional

| pA2 [1] | Kb [1] | Emax [2] | Emax [3] | Emax [4] | SMILES |
| --- | --- | --- | --- | --- | --- |
| 9.65 |  |  |  |  | C=C1NC(=O)[C@H](CC(C)C)NC(=O)[C@@H]2CNC(=O)C[C@H](NC1=O)C(=O)N[C@@H](Cc1c[nH]c3ccccc13)C(=O)N[C@@H](Cc1ccccc1)C(=O)N2 (cyclo(DWF[Dap]L[Dha]); lactam 1-4) |
|  | 6.17 nM | 95% | 96% | 94% | CSCC[C@@H]1NC(=O)[C@H](CC(C)C)NC(=O)[C@@H]2CNC(=O)C[C@H](NC1=O)C(=O)N[C@@H](Cc1c[nH]c3ccccc13)C(=O)N[C@@H](Cc1ccccc1)C(=O)N2 (cyclo(DWF[Dap]LM); lactam 1-4) |
|  | 5.62 nM | 96% | 99% | 92% | CC(C)C[C@@H]1NC(=O)[C@@H]2CNC(=O)C[C@H](NC(=O)[C@H](CSCC3O[C@@H](O)C(O)[C@H](O)[C@H]3O)CNC1=O)C(=O)N[C@@H](Cc1c[nH]c3ccccc13)C(=O)N[C@@H](Cc1ccccc1)C(=O)N2 (some centres undefined) (cyclo(DWF[Dap]L[X1]); lactam 1-4) |
